Laboratory results as given in patent publication US6413937B1, “Combinations for use in increasing the potency of a substrate for multidrug resistance related protein” (Dublin City University and Enterprise Ireland, priority 1996, dated 2002).

Columns and labels:
[1] = tested on: OAW42-SR cell line; experiment: miniaturised in vitro colorimetric cell survival assay, LRP overexpressing OAW42-SR; format: cell-based, human; conditions: alone or + Adriamycin 147 ng/ml
Protocol: All the results presented in this Example for the DLKP, A549 and OAW42-SR cell lines were derived using the same miniaturised in vitro calorimetric assay system. On Day 1 of the assay 1000 cells/well/100 μl were plated into 96-well plates. Cells were allowed to attach overnight and cell viability was visually assessed. On Day 2 the two drugs (i.e. NSAID plus chemotherapeutic drug) to be analysed were added onto the cells. The individual drugs were added separately in 50 μl quantities (4× stocks, to take into account the dilution effect of having 200 μl final volume in each well). The drugs were left on the cells for five further days (Day 7) and cell number was determined using the acid phosphatase end-point assay which uses p-nitrophenol phosphate as substrate (Martin, A. and Clynes, M. (1991) In Vitro Dev. Biol., 27A, 183-184). On Day 7 the culture medium was removed from the cells and they were washed once with phosphate buffered saline (PBS). […] After the incubation period 50 μl of 1N NaOH was added to each well to develop the colour. The plates were then read at 405 nm (reference 620 nm) on an ELISA plate-reader. […] All results are the cell survival means ±S.D. from a minimum of three experiments.

[2] = tested on: DLKP-7 cells; experiment: adriamycin efflux from loaded cells, HPLC; format: cell-based
Protocol: DLKP-7 cells were seeded into 75 cm^2 flasks at 0.5×10^6 cells/10 ml ATCC medium. The cells were left for 2 days, the ATCC medium was removed and fresh medium containing adriamycin (0.5 μg/ml) was added. Following a 2 hour incubation this medium was removed, the flasks were washed twice with PBS, 10 ml ATCC medium or ATCC medium containing the test NSAID was added, and the cells were incubated for a further 4 hr. The cells were trypsinised and the pellet was frozen at −20° C. Duplicate flasks for each time point were prepared. The NSAIDs used were indomethacin 10 μg/ml and piroxicam 20 μg/ml.
The amount of adriamycin in the cells was quantified using liquid-liquid extraction and reverse-phase HPLC analysis. The frozen cell pellets were thawed and resuspended in […] of water/100 μl of 33% silver nitrate and mixed for 5 min. 300 μl of methanol, containing 1.5 μg of daunorubicin as an internal standard (IS), and 1.3 ml of acetonitrile were then added and the tubes mixed for a further 5 min. The mixture was transferred to glass tubes and kept at 4° C. for 1 hr. The tubes were then centrifuged at 1000 g for 15 min. to pellet any solid material. 1.1 ml of the supernatant was removed to HPLC autosampler vials (Labquip, Dublin, Ireland). The solvent was evaporated off at room temperature under a stream of nitrogen gas.
The extract was resuspended in 50 μl of mobile phase 1 (MP1): 32 ml of 0.1 M phosphoric acid mixed with 244 ml of ultrapure water, pH: 2.3 (adjusted upwards with a few drops of 1N potassium hydroxide) to which 124 ml of acetonitrile was added and the final mixture was degassed in a sonicating bath for 5 min. The second mobile phase (MP2) consisted of acetonitrile. The resuspended sample (20 μl) was automatically injected into the HPLC system. The HPLC system comprised a Beckman System Gold 507 autosampler, 125 pump and 166 detector. The MP was pumped through a C18 reversed-phase Prodigy 5 μm particle size ODS-3 column (Phenomenex, Macclesfield, England) (dimensions 150×4.6mm) and absorbance was measured at 253 nm. For the first 14 min. of the chromatographic run MP 1 was pumped at 0.5 ml/min. From 14 min. to 20 min. the column was switched to MP 2. At 20 min. the column was switched back to MP 1 and the flow rate increased to 1 ml/min. At 30 min. the flow rate was brought back to 0.5 ml/min. The run continued for a further 5 min. giving a total run time of 35 min. The amount of adriamycin present was quantified by measuring its peak area and the peak area of the IS. The peak area of the adriamycin was divided by the area of the IS peak and the ratio plotted against a concentration series for spiked adriamycin samples.

[3] = tested on: GSTs; conditions: cited from earlier work
[4] = tested on: HL-60ADR cells; experiment: etoposide-induced apoptosis (nuclear fragmentation), HL-60ADR; format: cell-based; conditions: HL-60ADR (resistant); etoposide alone or co-treated with sulindac; FIG. 1
Protocol: (§1) An experiment was carried out to determine the effect of the NSAID sulindac on etoposide-induced apoptosis in two cell lines, namely HL-60S and HL-60ADR. These cell lines were donated by Dr. Melvin Center, Kansas State University, Manhattan Kans. 66506, U.S.A. For the HL-60S and ADR cell lines the percentage of apoptotic cells within the cell population, following drug exposure, was used to quantify toxicity. Cells were plated in fresh medium at a concentration of 10^6 cells/ml in a 24-well plate (Greiner) and drugs were then added to the wells. A 200 μl sample from each well was taken after 4 and 8 hrs. Samples were cytospun for 2 min at 500 rpm using a Shandon Cytofuge3. After air-drying the cytospins were stained using a Romanowsky staining kit, Rappi-Diff II (Langanbach), dried and mounted in DPX (BDH). Slides were studied on an Optiphot microscope (Nikon) fitted with a 40× objective, and visualised on a monitor via a Mitsubishi CCD-100E colour CCD-camera and a 0.6× relay lens. Nuclear fragmentation was used as a morphological marker for apoptosis and a minimum of 200 cells were assessed in at least three different microscopic fields. Results were expressed as the percentage of apoptotic cells within the population. Each experiment was repeated in duplicate.

[5] = tested on: COR L23 P (non-MRP) cells; conditions: doxorubicin 10 mg/ml alone or with sulindac 20 mg/ml, 1, 2, 4 h, FIG. 4
Protocol: (§2) 10^6 COR L23 P (parental non-MRP resistant, MRP−) or COR L23 R (MRP resistant, MRP+) cells were added to 75 cm^3 vented flasks containing HEPES buffered Rosemount Park Memorial Institute (RPMI) medium and maintained at 37° C. in a 5% CO2 atmosphere. […] After three days of growth, doxorubicin (final concentration 10 mg/ml), sulindac (final concentration 20 mg/ml) or doxorubicin and sulindac were added to individual flasks. Samples were taken after 1, 2 and 4 h. and assayed for drug content.
(§3) The contents of each flask were washed twice with 5 ml of PBS and stored at −70° C. The flasks were thawed and 100 μl of water and 100 μl of 33% silver nitrate added to each and mixed for 5 min. […]
(§4) The extract was resuspended in 50 μl of methanol in the sample vial and loaded into the HPLC autosampler. […] The mobile phases were pumped through a C18 reversed-phase Ultrasphere XL (Beckman) HPLC column (4.6×70 mm) with absorbance measured at 253 nm. […] The amount of doxorubicin and sulindac present was quantified by measuring the peak height of these drugs and the internal standard. […] The concentration of doxorubicin in the samples was calculated from the) nd development standard line using the peak height ratio. The sulindac concentrations were calculated by the same method.

[6] = tested on: HL-60S cells; experiment: etoposide-induced apoptosis (nuclear fragmentation), HL-60S; format: cell-based; conditions: HL-60S (sensitive); etoposide with sulindac; FIG. 2
Protocol: as §1

[7] = tested on: COR L23 R (MRP+) cells; conditions: doxorubicin 10 mg/ml alone or with sulindac 20 mg/ml, 1, 2, 4 h, FIG. 3
Protocol: as §2, §3, §4

| SMILES | % cell survival ([1]; vi) Indomethacin 0.625 μg/ml) | % cell survival ([1]; vi) Indomethacin 1.25 μg/ml) | % cell survival ([1]; vi) Indomethacin 2.5 μg/ml) | % Adriamycin content at 0 h ([2]; cells loaded with adriamycin 0.5 μg/ml 2 h, indomethacin 10 μg/ml, piroxicam 20 μg/ml, 0 h) | % Adriamycin content at 4 h ([2]; cells loaded with adriamycin 0.5 μg/ml 2 h, indomethacin 10 μg/ml, piroxicam 20 μg/ml, 4 h) | level of adriamycin within the treated cells ([2]; during the 4 hours of the experiment) | inhibition of GSTs [3] | etoposide-induced apoptosis, percentage of apoptotic cells [4] | doxorubicin level in the cells [5] | etoposide-induced apoptosis, percentage of apoptotic cells [6] | doxorubicin level in the cells [7] |
| --- | --- | --- | --- | --- | --- | --- | --- | --- | --- | --- | --- |
| COc1ccc2c(c1)c(CC(=O)O)c(C)n2C(=O)c1ccc(Cl)cc1 [Indomethacin, indomethacin] | 99.26 ± 3.7% | 97.67 ± 1.3% | 95.60 ± 3.3% | 100% | 109 ± 4% | remained constant during the 4 hours of the experiment | inhibitor of GSTs |  |  |  |  |
| CC1=C(CC(=O)O)c2cc(F)ccc2/C1=C\c1ccc([S+](C)[O-])cc1 (centres unmarked) [Sulindac, sulindac] |  |  |  |  |  |  |  | a significant increase in the amount of cells dying by apoptosis is observed | regardless of the co-treatment with sulindac | the increased apoptosis is only due to an additive effect of both etoposide and sulindac | the doxorubicin level in the cells is increased to near that found in the MRP—cells |
